# Measured values taken from ChEMBL document CHEMBL1201862, “PubChem BioAssay data set” (2004).
#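 Briefly, cells in 96-well plates were exposed to five compound concentrations for 48 h, and endpoints were estimated by linear interpolation. GI50 is the concentration that inhibits growth by half.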 Active and inactive are the calls of the source. Rule as the data show it: active = GI50 up to about 1.1 µM and inactive = higher.
# Legend:
# Experiment in all cases: DTP human tumour cell line panel, 48 h
# [1] = test system: 786-0
# [2] = test system: A498
# [3] = test system: A549
# [4] = test system: ACHN
# [5] = test system: CAKI-1
# [6] = test system: CCRF-CEM
# [7] = test system: COLO 205
# [8] = test system: DLD-1
# [9] = test system: DMS-114
# [10] = test system: DMS-273
# [11] = test system: DU-145
# [12] = test system: EKVX
# [13] = test system: HCC 2998
# [14] = test system: HCT-116
# [15] = test system: HCT-15
# [16] = test system: HL-60
# [17] = test system: HOP-18
# [18] = test system: HOP-62
# [19] = test system: HOP-92
# [20] = test system: HT-29
# [21] = test system: IGROV-1
# [22] = test system: K562
# [23] = test system: KM-20L2
# [24] = test system: KM12
# [25] = test system: LOX IMVI
# [26] = test system: LXFL 529
# [27] = test system: M14
# [28] = test system: M19-MEL
# [29] = test system: MOLT-4
# [30] = test system: Malme-3M
# [31] = test system: NCI-H226
# [32] = test system: NCI-H23
# [33] = test system: NCI-H460
# [34] = test system: NCI-H522
# [35] = test system: OVCAR-3
# [36] = test system: OVCAR-4
# [37] = test system: OVCAR-5
# [38] = test system: OVCAR-8
# [39] = test system: RPMI-8226
# [40] = test system: RXF 393
# [41] = test system: RXF 631
# [42] = test system: SF-268
# [43] = test system: SF-295
# [44] = test system: SF-539
# [45] = test system: SK-MEL-28
# [46] = test system: SK-MEL-2
# [47] = test system: SK-MEL-5
# [48] = test system: SK-OV-3
# [49] = test system: SN12C
# [50] = test system: SNB-19
# [51] = test system: SNB-75
# [52] = test system: SNB-78
# [53] = test system: SR
# [54] = test system: SW-620
# [55] = test system: TK-10
# [56] = test system: U-251
# [57] = test system: UACC-257
# [58] = test system: UACC-62
# [59] = test system: UO-31
smiles,measurement,setting,value
C=C(CN(C)C)C(=O)c1ccccc1Cl,GI50,[1],19.9 µM (inactive)
same,GI50,[2],36.8 µM (inactive)
same,GI50,[3],> 100 µM (inactive)
same,GI50,[4],17.6 µM (inactive)
same,GI50,[5],17.1 µM (inactive)
same,GI50,[6],5.7 µM (inactive)
same,GI50,[7],13.9 µM (inactive)
same,GI50,[8],17.3 µM (inactive)
same,GI50,[9],15.9 µM (inactive)
same,GI50,[10],19.6 µM (inactive)
same,GI50,[11],36.4 µM (inactive)
same,GI50,[12],> 52.1 µM (inactive)
same,GI50,[13],26.5 µM (inactive)
same,GI50,[14],18.4 µM (inactive)
same,GI50,[15],17.3 µM
same,GI50,[16],5.5 µM (inactive)
same,GI50,[17],19.5 µM (inactive)
same,GI50,[18],> 100 µM (inactive)
same,GI50,[19],17.1 µM (inactive)
same,GI50,[20],19.1 µM (inactive)
same,GI50,[21],> 47 µM (inactive)
same,GI50,[22],13.1 µM (inactive)
same,GI50,[23],30.1 µM (inactive)
same,GI50,[24],> 47.8 µM (inactive)
same,GI50,[25],17.8 µM (inactive)
same,GI50,[26],12.5 µM (inactive)
same,GI50,[27],19 µM (inactive)
same,GI50,[28],18.3 µM (inactive)
same,GI50,[29],6.68 µM (inactive)
same,GI50,[30],16.2 µM (inactive)
same,GI50,[31],> 67.3 µM (inactive)
same,GI50,[32],22.9 µM (inactive)
same,GI50,[33],52.8 µM (inactive)
same,GI50,[34],6.53 µM (inactive)
same,GI50,[35],19.7 µM (inactive)
same,GI50,[36],20.4 µM (inactive)
same,GI50,[37],> 43 µM (inactive)
same,GI50,[38],18.3 µM (inactive)
same,GI50,[39],17.7 µM (inactive)
same,GI50,[40],15.4 µM (inactive)
same,GI50,[41],21.2 µM (inactive)
same,GI50,[42],21.9 µM (inactive)
same,GI50,[43],> 65.3 µM (inactive)
same,GI50,[44],24.4 µM (inactive)
same,GI50,[45],7.59 µM (inactive)
same,GI50,[46],18.1 µM (inactive)
same,GI50,[47],24.2 µM (inactive)
same,GI50,[48],> 100 µM (inactive)
same,GI50,[49],20.9 µM (inactive)
same,GI50,[50],63.1 µM (inactive)
same,GI50,[51],41.8 µM (inactive)
same,GI50,[52],30.4 µM (inactive)
same,GI50,[53],10.8 µM (inactive)
same,GI50,[54],13.3 µM (inactive)
same,GI50,[55],21.7 µM (inactive)
same,GI50,[56],52.1 µM (inactive)
same,GI50,[57],18.8 µM (inactive)
same,GI50,[58],18.3 µM (inactive)
same,GI50,[59],18.9 µM (inactive)
O=C1[C@@H]2C(c3cccc([N+](=O)[O-])c3)=NO[C@@H]2C(=O)N1c1ccc(Cc2ccc(N3C(=O)[C@H]4C(c5cccc([N+](=O)[O-])c5)=NO[C@H]4C3=O)cc2)cc1,GI50,[1],91 µM (inactive)
same,GI50,[4],> 100 µM (inactive)
same,GI50,[5],> 100 µM (inactive)
same,GI50,[6],> 100 µM (inactive)
same,GI50,[7],> 100 µM (inactive)
same,GI50,[8],> 100 µM (inactive)
same,GI50,[9],> 100 µM (inactive)
same,GI50,[10],> 100 µM (inactive)
same,GI50,[14],> 100 µM (inactive)
same,GI50,[15],> 100 µM
same,GI50,[17],> 100 µM (inactive)
same,GI50,[18],> 100 µM (inactive)
same,GI50,[19],> 100 µM (inactive)
same,GI50,[20],> 100 µM (inactive)
same,GI50,[21],> 100 µM (inactive)
same,GI50,[22],> 100 µM (inactive)
same,GI50,[23],> 100 µM (inactive)
same,GI50,[24],> 10 µM (inactive)
same,GI50,[25],> 10 µM (inactive)
same,GI50,[26],> 100 µM (inactive)
same,GI50,[27],> 100 µM (inactive)
same,GI50,[28],> 100 µM (inactive)
same,GI50,[29],> 100 µM (inactive)
same,GI50,[30],> 100 µM (inactive)
same,GI50,[33],> 100 µM (inactive)
same,GI50,[34],> 100 µM (inactive)
same,GI50,[35],> 100 µM (inactive)
same,GI50,[36],> 100 µM (inactive)
same,GI50,[37],> 100 µM (inactive)
same,GI50,[38],> 10 µM (inactive)
same,GI50,[39],> 100 µM (inactive)
same,GI50,[40],> 100 µM (inactive)
same,GI50,[41],> 100 µM (inactive)
same,GI50,[42],> 10 µM (inactive)
same,GI50,[44],35.9 µM (inactive)
same,GI50,[45],> 100 µM (inactive)
same,GI50,[46],> 100 µM (inactive)
same,GI50,[48],> 10 µM (inactive)
same,GI50,[49],> 100 µM (inactive)
same,GI50,[51],> 100 µM (inactive)
same,GI50,[52],> 100 µM (inactive)
same,GI50,[53],> 100 µM (inactive)
same,GI50,[54],> 100 µM (inactive)
same,GI50,[55],> 100 µM (inactive)
same,GI50,[56],> 10 µM (inactive)
same,GI50,[57],> 100 µM (inactive)
same,GI50,[58],> 100 µM (inactive)
same,GI50,[59],> 100 µM (inactive)
